The record followed here is article PMC8880313, “Discovery of Novel Andrographolide Derivatives as Antiviral Inhibitors against Human Enterovirus A71” (Pharmaceuticals, 2022).

For data set [1], the system named is EV-A71. In words: Immunofluorescence-based preliminary screen of EV-A71-infected RD cells. It is filed as cell-based, human enterovirus A71 (EV-A71) strain 41. To be noted: EV-A71-infected RD cells (MOI = 1). The text has this:
The screening assay was built using an immunofluorescence approach that was previously established and validated, with DAPI-stained nuclei accounting for total cell count and FITC-stained EV-A71 accounting for infected cell count upon EV-A71 infection and compound treatment. Both cell counts would then be used to calculate percentage infection and percentage inhibition to identify for hits. Before the screening platform can be employed to screen for potential antivirals, its robustness has to be appraised. In this study, Z-factor was calculated to assess the robustness of the screening platform. Firstly, seeded RD cells were either infected with EV-A71 (Multiplicity of Infection of 1) or mock-infected with media. The cells were then fixed, stained and imaged 12 h post-infection (hpi). The IFA images were analyzed with the Cell Profiler software to determine the infection rate of each well. Between the virus-infected and mock-infected wells, a clear distinction in infection rates could be observed (Figure 1a). […] In this case, the Z-factor, measured at 0.818, was indicative of a highly robust screening platform for high-throughput screening. The constructed screening platform was then employed to screen the compound library made up of 344 chemically synthesized novel compounds analogous to andrographolide. The compounds were screened at 10 µM with IFA images taken and analyzed to identify for hits. Treatment with 0.1% DMSO was used as vehicle control.
Seeded 96-well plates (Corning Inc., Corning, NY, USA), with 2 × 10^4 RD cells per well, were incubated overnight at 37 °C with 5% CO2. The seeded cells were then infected with EV-A71 (50 µL per well, MOI = 1) for 1 h at 37 °C with 5% CO2. The EV-A71-infected cells were then treated with the compound library at a final concentration of 10 µM for 12 h at 37 °C with 5% CO2. Treatment with 0.1% DMSO was used as vehicle control. Following treatment, cells were fixed with 100 µL of methanol (Sinopharm Chemical, Shanghai, China) for 15 min at −20°C and rinsed with 100 µL of 1x PBS for three times before performing indirect immunofluorescence assay (IFA). Anti-EV-A71 VP2 1° antibodies, MAB979 (Merck Millipore, Burlington, VT, USA), diluted 500-fold in PBS, was incubated with the fixed cells for 1 h at 37 °C. Cells were then rinsed thrice with PBS and incubated with anti-mouse FITC 2° antibodies (Merck Millipore), diluted 200-fold in PBS, for 1 h at 37 °C. After which, the cells were rinsed thrice with PBS before staining with DAPI (Sigma-Aldrich) at room temperature for 15 min. Cells were then rinsed thrice and preserved in 100 µL of PBS before imaging with the Operetta High-Content Imaging System and the Harmony High-Content Imaging and Analysis Software (Perkin Elmer, Waltham, MA, USA). Images of stained cells were captured with the DAPI and FITC fluorescence filters, from a pre-determined central position of each well and processed with the Cell Profiler software. […] The percentage infection (PI) for each well was calculated using the formula: Infected cell count/Total cell count × 100%. The percentage inhibition for each well was calculated using the formula PI0− PI/PI0 × 100% where PI0 refers to the percentage infection of wells treated with the vehicle control while PI refers to the percentage infection of wells treated with the compounds.

In data set [2] the test system is replication-competent EV-A71 RNA replicon. In words: Nano-luciferase reporter assay, replication-competent replicon. It is filed as cell-based, human enterovirus A71 (EV-A71). Conditions: RD cells, 12 h; ZAF-47 different concentrations, GuHCl 1 mM. How it is done:
To identify specifically which of these two intrinsically linked processes that ZAF-47 inhibits, we transfected RD cells with EV-A71 RNA replicons that were either replication-competent or replication-defective and subsequently treated them with different concentrations of ZAF-47 for 12 h before detecting for luminescence. Both forms of replicons were previously established and validated. The replication-competent replicon is capable of self-replicating as it contains an intact 3D region that encodes for 3D polymerase (3D^pol) responsible for RNA replication (Figure 4c). […] In contrast, the replication-defective replicon contains a 3D region with 159 nucleotide deletion which would produce a non-functional 3D protein and impair RNA replication (Figure 4c). As such, cells containing the replication-defective replicon express luciferase upon IRES translation of the original replicons only. The transfected cells were also treated with negative control, DMSO and positive controls, guanidine hydrochloride (GuHCl) and cycloheximide (CHX), a RNA replication-specific inhibitor [50] and a general translation inhibitor [51] respectively.
Seeded 96-well plates, with 2 × 10^4 RD cells per well, were incubated overnight at 37 °C with 5% CO2. […]
(In general: Reporter assays use an easily measured gene product as a stand-in for the process of interest.)

As for `CC(=O)OC[C@]1(C)C(=O)CC[C@@]2(C)C(C/C=C3/C(=O)OC[C@@H]3Oc3cccc4cccnc34)=C(C)CC[C@@H]21` [ZAF-47, (14β)-(8′-Quinolinoxy)-3-ketone-9-dehydro-17-hydro-19-acetoxy–andrographolide], in data set [1] (10 µM, 12 h, 0.1% DMSO wells 998), the “Nuclei Count” value is 955. Further, the inhibition at 10 µM in data set [1] (Enterovirus A, EVA71, 12 h, read-out: Inhibition Rate (%)) stood at 77.1%. Further, the “luminescence, replication-competent replicon” value in data set [2] was “significant decrease in luminescence in a dose-dependent manner”.

By inhibition is commonly meant the drop in the measured response relative to a control, in per cent.
